Read-outs that look alike come from different tables or passages of the source. Marks after values point to notes of the source that are not given here.

For data set [1], the target named is T1, OXA-1 (Escherichia coli, UniProt P13661). As to the kind of experiment: Cleavage of chromogenic substrate by enzyme (PADAC example). The conditions noted are these: PADAC monitored at 570 nm; same enzyme preparation for nitrocefin.
In data set [2] the target is T2, Chromosomal, hyper-induced beta-lactamase enzyme (Escherichia coli, UniProt P00811). Briefly: Hydrolysis of nitrocefin by enzyme (Michaelis constant). As to conditions: read-out: Km (Nitrocefin); enzyme No. 9.
For data set [3], the target named is T3, OXA-2 (Escherichia coli, UniProt P0A1V9). The data set is described as above. The conditions noted are these: read-out: Km (Nitrocefin); enzyme No. 6.
Data set [4] deals with O=C(Cc1cccs1)N[C@@H]1C(=O)N2C(C(=O)O)=C(C=Cc3ccc([N+](=O)[O-])cc3[N+](=O)[O-])CS[C@H]12. Briefly: purified protein, by the assay type. As to conditions: pH 7.0; 37.0 °C.
Data set [5] shares this test system. Briefly: purified protein, by the assay type. The conditions noted are these: pH 7.0; 37.0 °C. The source holds these as a separate data set.
The next data set deals with OXA-3 (Pseudomonas aeruginosa, UniProt Q51429). As to the kind of experiment: Competitive assay with nitrocefin (RSAI). More on the design: Normally, therefore, the beta-lactamase has to be extracted from the cells for the purpose of the present invention; endogenous in cells. Type of data set: biochemical, E. coli R57B.
The target in data set [6] is T1, OXA-1. As to the kind of experiment: Competitive assay with nitrocefin (RSAI). Type of data set: biochemical, E. coli 1527E. Details: the beta-lactamase has to be extracted from the cells for the purpose of the present invention; made in house; host or cells: E. coli 1527E according to the earlier reading (crude cell extract).
The target in the next data set is PSE-4 (Pseudomonas aeruginosa, UniProt P16897). Briefly: Competitive assay with nitrocefin (RSAI). Type of data set: biochemical, Ps.aerug. 1559E. Details: Normally, therefore, the beta-lactamase has to be extracted from the cells for the purpose of the present invention; endogenous in cells.
A further data set concerns HMS-1. Briefly: Competitive assay with nitrocefin (RSAI). Type of data set: biochemical, E. coli 1946.
The target in data set [7] is T2, Chromosomal, hyper-induced beta-lactamase enzyme. Briefly: Competitive assay with nitrocefin (RSAI). Type of data set: biochemical, E. coli SNU35. Details: Normally, therefore, the beta-lactamase has to be extracted from the cells for the purpose of the present invention; endogenous in cells; host or cells: E. coli SNU 35 (artificially produced strain).
For a further data set, the system named is K10317. As to the kind of experiment: Competitive assay with nitrocefin (RSAI). The class given is biochemical, K.aerog. 10317.
A further data set has as its target SHV-1 (Escherichia coli, UniProt P0AD63). As to the kind of experiment: Competitive assay with nitrocefin (RSAI). Type of data set: biochemical, E. coli 2008E. Details: the beta-lactamase has to be extracted from the cells for the purpose of the present invention; made in house; host or cells: E. coli 2008E (crude cell extract).
In data set [8] the test system is "unknown" (unidentified) beta-lactamase. Briefly: Competitive assay with nitrocefin (RSAI) on an unidentified beta-lactamase. The conditions noted are these: extract by the method of Example 6, assay as in Example 1; * = showed irreversible inhibition.
The target in the next data set is PSE-2 (Pseudomonas aeruginosa, UniProt P14489). Briefly: Competitive assay with nitrocefin (RSAI). Type of data set: biochemical, Ps.aerug. 1973E. Details: Normally, therefore, the beta-lactamase has to be extracted from the cells for the purpose of the present invention; endogenous in cells.
In another data set the test system is K17. Briefly: Competitive assay with nitrocefin (RSAI). Type of data set: biochemical, Klebsiella 17.
The next data set relates to PSE-3. Briefly: Competitive assay with nitrocefin (RSAI). The class given is biochemical, Ps.aerug. 1920E.
Another data set deals with TEM-1 (Escherichia coli, UniProt P62593). As to the kind of experiment: Competitive assay with nitrocefin (RSAI). The class given is biochemical, E. coli 2136E. More on the design: the beta-lactamase has to be extracted from the cells for the purpose of the present invention; made in house; host or cells: E. coli 2136E (plasmid-bearing strain; crude cell extract).
Another data set deals with PSE-1 (Pseudomonas aeruginosa, UniProt Q03170). Briefly: Competitive assay with nitrocefin (RSAI). The class given is biochemical, Ps.aerug. 1937E. More on the design: Normally, therefore, the beta-lactamase has to be extracted from the cells for the purpose of the present invention; endogenous in cells.
A further data set has as its target TEM-2 (Escherichia coli, UniProt P62593, Q37K). As to the kind of experiment: Competitive assay with nitrocefin (RSAI). Type of data set: biochemical, E. coli 1725E.
Data set [9] concerns the target T3, OXA-2. Briefly: Competitive assay with nitrocefin (RSAI). Type of data set: biochemical, E. coli R46. More on the design: the beta-lactamase has to be extracted from the cells for the purpose of the present invention; made in house; host or cells: E. coli carrying R46 according to the earlier reading (crude cell extract).
Data set [10] has as its target T4, Chromosomal, constitutive beta-lactamase enzyme (Enterobacter cloacae, UniProt P05364).
T4 construct: Normally, therefore, the beta-lactamase has to be extracted from the cells for the purpose of the present invention; endogenous in cells
As to the kind of experiment: Competitive assay with nitrocefin (RSAI). The class given is biochemical, E. cloacae.

The test system of a further data set is K1073. As to the kind of experiment: Competitive assay with nitrocefin (RSAI). Type of data set: biochemical, Klebsiella 1073.
Data set [11] addresses T5, Chromosomal, induced beta-lactamase enzyme (Pseudomonas aeruginosa, UniProt P24735).
T5 construct: Normally, therefore, the beta-lactamase has to be extracted from the cells for the purpose of the present invention; endogenous in cells; host or cells: Pseudomonas aeruginosa 1937E grown with ampicillin
Briefly: Competitive assay with nitrocefin (RSAI). Type of data set: biochemical, Ps.aerug. 1937E + ampicillin.

As for `O=C(Cc1cccs1)N[C@@H]1C(=O)N2C(C(=O)O)=C(C=Cc3ccc([N+](=O)[O-])cc3[N+](=O)[O-])CS[C@H]12` [Nitrocefin, 3-(2,4-dinitrostyryl)-(6R,7R)-7-(2-thienylacetamido)ceph-3-em-4-carboxylic acid], the “cleavage of chromogenic substrate by the enzyme” value at OXA-1 [1] was “cleaved”. Besides, the Km in data set [2] is 34.8 µM; at OXA-2 [3], < 9.68 µM.

On to (Escherichia coli), for which the Michaelis constant (Km) in data set [4] worked out at 9 µg/mL; in data set [5], 16 µg/mL.

Regarding `CO[C@@]1(NC(=O)C(C(=O)O)c2ccc(O)cc2)C(=O)N2C(C(=O)O)=C(CSc3nnnn3C)CO[C@@H]21` (some centres unmarked) [Moxalactam], the RSAI on OXA-3 is 1*; at OXA-1 [6], 4*; at PSE-4, 4.3; in the data set on HMS-1, 0.3*; in data set [7], 0.002*; in data set [7] (listed as moxalactam), 0.002. The RSAI is given as 60* in the data set with K10317; 280 on SHV-1; 0.0001 in [8]; 8.2 at PSE-2; 3.5 with K17; 7 with PSE-3. The RSAI at TEM-1 is 40*; at PSE-1, 3.5; on TEM-2 it was 60*; at OXA-2 [9], 3*; in data set [10], 0.0001*; in data set [10] (listed as moxalactam) it was 0.0001. In addition, the RSAI with K1073 was >80; in data set [11], 0.006*; in data set [11] (listed as moxalactam), 0.006.
